RP-LC retention time data for 32 compounds are collected here from the METLIN SMRT retention time set (Domingo-Almenara et al. 2019).

A short description of the data set: gradient 5% acetonitrile 3 min, to 50% in 2 min, to 85% in 15 min, held 3 min, 100 µL/min. The settings on record: column: Zorbax Extend-C18 2.1 x 50 mm; eluents: water / acetonitrile, 0.1% formic acid. The method in brief: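 Values are retention times taken from adduct peaks that software picked and an analyst inspected. The pure standards were run as mixtures of ~100 molecules on HPLC linked to a quadrupole time-of-flight mass spectrometer, in positive and negative ionization mode. A Zorbax Extend-C18 column (2.1 × 50 mm, 1.8 μm) was used at 100 μL/min with water and acetonitrile, each including 0.1% formic acid.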
For `Cc1ccc(-c2nnc(SCC(=O)Nc3cccc(Cl)c3C)o2)cc1`, the RP-LC retention time was determined as 1020 s.

With `CCOC(=O)c1[nH]c(C)c(C(=O)N2CCC(CC(=O)N(C)Cc3ccco3)CC2)c1C`, the RP-LC retention time came out at 729 s.

Consider `Cc1nn(-c2ccc(C(=O)N3CCCCC3)cc2)c2c1C(=O)CCC2`, for which the RP-LC retention time worked out at 721 s.

`Cc1nn(C(C)C(=O)NCc2ccco2)c(=O)c2nn(-c3ccccc3)c(C)c12` (configuration not stated): the RP-LC retention time turned out to be 761 s.

In turn, `O=[N+]([O-])c1ccc(CSc2nnc(-c3ccncc3)n2-c2ccccc2)cc1` yielded an RP-LC retention time of 706 s.

`CCc1noc2nc(C)n(CC(=O)NCc3ccc(F)cc3)c(=O)c12`: the RP-LC retention time came out at 797 s.

For the compound `COc1ccc(Cl)cc1N1CC(c2nc(-c3ccc(C)cc3)no2)CC1=O` (configuration not stated), the RP-LC retention time came out at 1050 s.

`CCOC(=O)c1noc2ncnc(NCCCN3CCN(c4ccc(F)cc4)CC3)c12` gave an RP-LC retention time of 599 s.

`Cc1ccccc1Cn1nc2n(c1=O)CCCCC2` came in with an RP-LC retention time of 772 s.

With `Cc1c(C)n(-c2ccc(Cl)cc2)c2ncn(CC(=O)NC3CCCCC3)c(=O)c12`, the RP-LC retention time is 644 s.

The compound `CCOCC(=O)N1CCN(S(=O)(=O)c2c(C)nn(C(C)C)c2C)CC1` yielded an RP-LC retention time of 702 s.

As for `O=S(=O)(Nc1cccc(Cl)c1)c1ccc(-c2nnc(C3CCC3)o2)o1`, the RP-LC retention time was 967 s.

On to `c1ccc2c(c1)CCN(Cc1nc(-c3ccc(N4CCCC4)nc3)no1)C2`, for which the RP-LC retention time came to 583 s.

`Cc1oc(C2CCN(S(=O)(=O)c3ccc(C#N)cc3)CC2)nc1C(=O)N(C)C`: the RP-LC retention time came to 762 s.

`CCc1cccc(N2C(=O)CN(S(=O)(=O)CC)CC2(C)C(=O)NCc2ccc(F)cc2)c1` (configuration not stated): the RP-LC retention time stood at 945 s.

Turning to `Cc1ccc(CNC(=O)C2c3ccccc3CC(=O)N2C)cc1` (configuration not stated), the RP-LC retention time was 748 s.

`CCc1cc(C(=O)N2CCCCCC2)nc2cc(-c3ccsc3)nn12` yielded an RP-LC retention time of 1070 s.

Turning to `Cc1ccc(-n2nnnc2CNC(=O)c2cc(Br)ccc2Cl)cc1`, the RP-LC retention time came to 835 s.

Consider `COc1ccccc1CNC(=O)Cn1c(=O)cc(-c2nc(C(C)C)no2)c2ccccc21`, for which the RP-LC retention time came to 972 s.

Take `COc1cccc(CNC(=O)N2CCC(n3c(-c4ccco4)nc4cccnc43)C2)c1` (configuration not stated): the RP-LC retention time was 712 s.

Regarding `COc1cccc(S(=O)(=O)N2CC(F)(F)C[C@H]2CN2CCc3ccccc3C2)c1`, the RP-LC retention time is 807 s.

Regarding `CCN(CC)C(=O)c1cccnc1`, the RP-LC retention time worked out at 627 s.

Regarding `CCN(CC)C(=O)c1ccc(-c2nc3cc(NS(=O)(=O)c4ccc(Cl)cc4)ccc3n2C)cc1`, the RP-LC retention time was found to be 735 s.

In turn, `Cc1cc(C)n(Cc2nc(-c3ccc(NC(=O)c4sccc4C)cc3)oc2C)n1` showed an RP-LC retention time of 951 s.

Regarding `CCc1ccc(Nc2nc(C(=O)NCCC(C)C)nc3ccccc23)cc1`, the RP-LC retention time was 964 s.

Regarding `O=C(Cn1nc2c(cc1=O)CCCC2)N[C@@H](Cc1ccccc1)C(=O)O`, the RP-LC retention time was 682 s.

For `Cc1ccc(NC(=O)Cn2ncc3c(c2=O)N(C2CC2)C(=O)CS3)cc1C`, the RP-LC retention time was 732 s.

In turn, `CCn1cc(C(=O)N2C[C@@H](COCC3CC3)[C@H](c3nc(C)no3)C2)cn1` had an RP-LC retention time of 714 s.

In turn, `CCCN1C(=O)c2c(C(=O)NCc3ccc(Cl)cc3)ncn2CC1(C)C(=O)NCCC(C)C` (configuration not stated) returned an RP-LC retention time of 868 s.

`O=C(NCCCOc1cccc2cccnc12)c1cc(=O)c2ccccc2o1` registered an RP-LC retention time of 648 s.

Regarding `Cc1cc(C)c(NC(=O)/C=C/c2ccccc2)c(C)c1`, the RP-LC retention time stood at 898 s.

The compound `CCN1CCN(CCCNC(=O)C2CCCN(c3nn4c(=O)c5c(nc4s3)CCCC5)C2)CC1` (configuration not stated) registered an RP-LC retention time of 554 s.
